Source: patent publication US9850216B2 (H. LEE MOFFITT CANCER CENTER AND RESEARCH INSTITUTE, INC., priority 2013, dated 2017)
“And” between values parts separate entries of the source, which are not always exact repeats. Identical values can stand only once. Counter-ions that a name gives are not always drawn. Like-named read-outs stand apart in the source and are kept apart here.

Experiments:
[1] = test system: AR; assay: AR mRNA by real time PCR in androgen-deprived prostate cancer cells; type: cell-based, human; conditions: overnight treatment (FIG. 3a, b)
Description: Total RNA was isolated followed by qPCR with AR primers. VCaP, *p=0.022; LNCaP, *p=0.042, **p=0.047. […] Total RNA was isolated followed by qPCR with PSA primers.

[2] = test system: PSA; assay: PSA mRNA by real time PCR in androgen-deprived prostate cancer cells; type: cell-based, human; conditions: overnight treatment (FIG. 3c, d)
Description: Total RNA was isolated followed by qPCR with AR primers. […] Total RNA was isolated followed by qPCR with PSA primers.

[3] = target: T1, ACK1 (Homo sapiens, UniProt Q07912); assay: ACK1 ELISA: phosphorylation of AKT-derived peptide; type: biochemical
[4] = test system: LAPC4 cells; assay: Cell growth, LAPC4; type: cell-based, human
Description: Selected compounds from the library 9 were chosen to evaluate the effects of ACK1 inhibition in LAPC4 human prostate cancer cells with inhibition of cell growth as a read out. […] Based on the findings from cell culture data, enantiomers of 9b were synthesized to understand the ACK1 inhibitory activities of individual stereoisomers. […] The synthesis of (R)-9b and (S)-9b are shown in the Scheme 4 and other examples of enantiomerically pure compounds (not reported here) were also synthesized using the protocols in the Scheme 4.
(§1) Three distinct human prostate cancer derived cell lines, LNCaP, LAPC4 and VCaP were either DMSO treated or treated with 1, 2.5, 5, 7.5 and 10 μM of inhibitors, AIM-100, (R)-9b and (S)-9b for 36 hrs and the number of viable cells were counted by trypan blue exclusion assay.

[5] = target: T1, ACK1; assay: 32P Hotspot assay (Reaction Biology), ACK1 IC50; type: biochemical
Protocol: (§2) 8 compounds were tested against […], ACK1, Src and ALK in various combinations. […] Reactions were carried out at 10 μM ATP.

[6] = test system: AR; assay: AR protein levels in androgen-deprived prostate cancer cells, immunoblotting; type: cell-based, human; conditions: immunoblotting (FIG. 2)
Protocol: Transcriptional regulation of the AR gene itself is a paradigm that merits thorough investigation. […] Whether AR utilizes ACK1 to facilitate its transcriptional co-activator function is not known. […] Cells were also treated with ACK1-specific small molecule inhibitors, DZ1-067 or AIM-100.

[7] = test system: pY88-H4; assay: Endogenous H4 Y88-phosphorylation in LNCaP cells; type: cell-based, human; conditions: 16 hrs (FIG. 5b)
Protocol: In FIG. 5(a), equimolar amounts of purified ACK1 and H4 proteins were incubated in the presence of DZ1-067 (100 nM) and reaction subjected to immunoblotting with pY88-H4 antibodies. […] The nuclear lysates were immunoprecipitated with pY88-H4 antibodies followed by immunoblotting with H4. Lower panel is input lysate.

[8] = target: ALK (Homo sapiens, UniProt Q9UM73); assay: Kinase IC50 profiling, ALK; type: biochemical; conditions: Table 4; 10-dose; 10 μM ATP; read-out: Compound IC50 (M), ALK
Protocol: as §2

[9] = test system: LNCaP cells; assay: Cell proliferation, trypan blue exclusion, LNCaP; type: cell-based, human; conditions: Homo sapiens, LNCaP; 36 hrs, viable cells by trypan blue exclusion; read-out: IC50, inhibition of cell growth in LNCaP cells
Protocol: (§3) The number of viable cells was counted by trypan blue exclusion assay.
as §1
(§4) The ability of the ACK1 inhibitors to suppress proliferation of prostate cancer cell lines were also assessed. AIM-100, an ACK1 inhibitor, originally screened by Amgen was used as a control. […] Overall, it appears that ACK1 is needed for androgen-independent growth of prostate cancer cells.

[10] = test system: VCaP cells; assay: Cell proliferation, trypan blue exclusion, VCaP; type: cell-based, human; conditions: Homo sapiens, VCaP; 36 hrs, viable cells by trypan blue exclusion; read-out: IC50, inhibition of cell growth in VCaP cells
Protocol: as §3, §1, §4

[11] = metastatic CRPC; literature; cited from earlier work
[12] = target: T1, ACK1; assay: EGF-induced ACK1 autophosphorylation (Tyr284) in LAPC4 cells, immunoblotting; type: cell-based; parameters: endogenous in cells; host or cells: LAPC4; conditions: pretreated with compound, 5 μM (FIG. 8(a))
Protocol: Inhibition of: LNCaP (FIG. 8(b)); LAPC4 (FIG. 8(c)), and VCaP (FIG. 8(d)) cell growth by AIM-100, (R)-9b, and (S)-9b. Inhibition of ACK1 autophosphorylation in LAPC4 cells treated 5 μM with (R)-9b and (S)-9b (FIG. 8(a)).
ACK1 is a tyrosine kinase that auto-phosphorylates at Tyr284, which is indicative of its kinase activation. To determine inhibitory potential of the compounds from library 9, prostate cancer derived cell line LAPC4 was treated with either EGF ligand alone or added to cells pretreated with the compounds, and equal amounts of cell lysates were subjected to immunoblotting. EGF (epidermal growth factor) ligand causes rapid activation of EGFR (epidermal growth factor receptor), which in turn lead to activation of the ACK1 kinase (FIG. 8(a), lane 2, top panel). […] Actin was used as control, which indicates equal loading of cell lysates (FIG. 8(a), lower panel).

[13] = 10 μM, Table 2, library 9, read-out: % Inhibition @ 10 μM (ELISA)
[14] = Table 1, unit inferred, (RB) = Reaction Biology, replicates listed, read-out: IC50
[15] = Table 4, 10-dose, 10 μM ATP, read-out: Compound IC50 (M), ACK1
[16] = 10 μM, Table 1, replicate values listed
[17] = 10 μM, Table 1, replicate values listed, read-out: % Inhibition at 10 μM (ELISA)
[18] = Table 3, 10-dose, 3-fold dilution from 10 μM, 10 μM ATP, read-out: Compound IC50* (M): ACK1
[19] = 10 μM, Table 1, replicate values listed, hydrochloride
[20] = Table 1, nM, (RB) = Reaction Biology, replicates listed, read-out: IC50

T1 sequence (Q07912 whole entry): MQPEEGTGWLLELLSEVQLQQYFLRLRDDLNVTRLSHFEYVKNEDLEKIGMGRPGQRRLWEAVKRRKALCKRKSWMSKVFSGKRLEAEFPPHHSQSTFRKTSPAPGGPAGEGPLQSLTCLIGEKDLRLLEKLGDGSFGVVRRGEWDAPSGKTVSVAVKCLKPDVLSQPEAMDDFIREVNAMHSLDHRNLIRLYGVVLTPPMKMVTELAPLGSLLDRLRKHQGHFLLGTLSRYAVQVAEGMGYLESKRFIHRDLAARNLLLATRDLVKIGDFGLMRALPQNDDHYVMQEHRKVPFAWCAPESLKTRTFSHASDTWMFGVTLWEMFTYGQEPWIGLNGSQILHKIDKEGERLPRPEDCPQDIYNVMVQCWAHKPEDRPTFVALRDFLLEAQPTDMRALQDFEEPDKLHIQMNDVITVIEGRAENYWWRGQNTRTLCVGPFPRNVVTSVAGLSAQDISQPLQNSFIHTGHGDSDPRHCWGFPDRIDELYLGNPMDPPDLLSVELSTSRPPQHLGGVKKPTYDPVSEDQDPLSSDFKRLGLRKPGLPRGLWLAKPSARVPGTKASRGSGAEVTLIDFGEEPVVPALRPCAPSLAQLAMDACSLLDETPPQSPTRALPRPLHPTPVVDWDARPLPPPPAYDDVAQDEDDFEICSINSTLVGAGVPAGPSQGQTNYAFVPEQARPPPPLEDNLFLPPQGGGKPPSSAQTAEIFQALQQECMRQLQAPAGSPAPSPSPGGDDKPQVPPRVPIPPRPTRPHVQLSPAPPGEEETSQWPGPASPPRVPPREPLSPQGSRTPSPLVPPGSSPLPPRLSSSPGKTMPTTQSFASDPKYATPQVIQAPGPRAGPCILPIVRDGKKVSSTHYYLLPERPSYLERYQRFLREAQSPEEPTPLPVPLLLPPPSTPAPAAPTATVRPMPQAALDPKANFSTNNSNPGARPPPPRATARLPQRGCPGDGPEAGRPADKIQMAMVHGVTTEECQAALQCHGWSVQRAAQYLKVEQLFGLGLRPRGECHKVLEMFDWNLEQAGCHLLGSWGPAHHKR
ALK, sequence (Q9UM73 19-1620): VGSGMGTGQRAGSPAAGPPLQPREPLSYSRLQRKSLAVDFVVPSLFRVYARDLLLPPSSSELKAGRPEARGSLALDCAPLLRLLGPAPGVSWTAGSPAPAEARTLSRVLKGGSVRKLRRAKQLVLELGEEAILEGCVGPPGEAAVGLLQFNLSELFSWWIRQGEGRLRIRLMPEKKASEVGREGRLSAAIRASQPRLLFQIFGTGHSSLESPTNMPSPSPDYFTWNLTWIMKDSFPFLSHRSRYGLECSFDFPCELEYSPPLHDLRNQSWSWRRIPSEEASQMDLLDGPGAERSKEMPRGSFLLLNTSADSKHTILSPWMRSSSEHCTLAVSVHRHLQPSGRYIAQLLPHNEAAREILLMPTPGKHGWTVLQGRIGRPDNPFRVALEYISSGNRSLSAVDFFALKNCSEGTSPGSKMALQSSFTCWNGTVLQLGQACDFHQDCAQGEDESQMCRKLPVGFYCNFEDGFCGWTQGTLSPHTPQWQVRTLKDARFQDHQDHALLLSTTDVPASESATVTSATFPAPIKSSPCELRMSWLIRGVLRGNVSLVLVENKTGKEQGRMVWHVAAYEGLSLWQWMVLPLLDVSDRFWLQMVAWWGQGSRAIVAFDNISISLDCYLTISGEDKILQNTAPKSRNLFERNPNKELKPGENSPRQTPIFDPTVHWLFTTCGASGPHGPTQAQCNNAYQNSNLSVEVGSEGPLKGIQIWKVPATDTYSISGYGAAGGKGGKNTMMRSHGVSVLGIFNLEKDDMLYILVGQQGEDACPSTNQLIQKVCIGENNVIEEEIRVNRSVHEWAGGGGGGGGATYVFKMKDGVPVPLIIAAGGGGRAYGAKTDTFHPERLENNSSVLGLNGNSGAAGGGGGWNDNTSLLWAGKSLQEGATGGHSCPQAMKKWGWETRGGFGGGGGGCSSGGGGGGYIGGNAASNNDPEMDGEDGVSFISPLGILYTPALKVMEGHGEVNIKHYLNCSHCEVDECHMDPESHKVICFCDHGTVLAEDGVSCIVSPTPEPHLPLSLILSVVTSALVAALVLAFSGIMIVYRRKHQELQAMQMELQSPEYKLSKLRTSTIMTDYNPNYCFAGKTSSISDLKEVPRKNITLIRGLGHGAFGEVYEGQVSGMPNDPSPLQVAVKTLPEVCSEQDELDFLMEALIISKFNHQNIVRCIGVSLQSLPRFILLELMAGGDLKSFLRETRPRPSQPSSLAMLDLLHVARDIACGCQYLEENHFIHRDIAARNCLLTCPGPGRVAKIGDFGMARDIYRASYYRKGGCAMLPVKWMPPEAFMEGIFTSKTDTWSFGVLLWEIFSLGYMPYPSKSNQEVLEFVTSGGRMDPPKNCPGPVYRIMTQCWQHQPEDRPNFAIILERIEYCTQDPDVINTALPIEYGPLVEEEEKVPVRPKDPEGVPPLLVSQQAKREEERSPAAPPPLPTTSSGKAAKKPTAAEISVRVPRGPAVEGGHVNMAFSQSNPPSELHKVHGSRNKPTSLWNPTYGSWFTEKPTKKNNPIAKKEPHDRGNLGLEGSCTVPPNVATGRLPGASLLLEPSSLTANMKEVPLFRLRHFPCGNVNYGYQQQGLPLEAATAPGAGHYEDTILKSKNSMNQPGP

## CC(O)(CS(=O)(=O)c1ccc(F)cc1)C(=O)Nc1ccc(C#N)c(C(F)(F)F)c1 (stereo not shown) [Casodex]
[1]
  AR mRNA levels: no significant change
[2]
  PSA mRNA levels: significantly suppressed PSA mRNA levels

## CN1CCN(c2ccc(Nc3ncc(Cl)c(NCC4CCCO4)n3)cc2)CC1 (stereo not shown) [Compound 9b]
[3]; [13]
  inhibition at 10 µM: 90.5 ± 0.7%
[4]
  cellular potency, ACK1 inhibition in LAPC4 cells with cell growth as read out: promising ACK1 inhibitory activities in cellular assays

## O=C(Nc1c(F)cccc1Cl)c1cnc(Nc2ccc(N3CCNCC3)cc2)nc1NCC1CCCO1 (stereo not shown) [Compound 9m]
[3]; read-out: % Inhibition @ 10 μM (ELISA), 10 μM, Table 2, library 9
  inhibition at 10 µM: 89.5 ± 2.1%
[4]
  cellular potency, ACK1 inhibition in LAPC4 cells with cell growth as read out: did not display the expected cellular potency

## O=C(Nc1c(F)cccc1Cl)c1cnc(Nc2ccc(N3CCOCC3)cc2)nc1NCC1CCCO1 (stereo not shown) [Compound 9n]
[5]; Table 2, read-out: IC50 (32P Hotspot assay)
  IC50: 4.77e-08 M
[3]; [13]
  inhibition at 10 µM: 82 ± 7.7%
[4]
  cellular potency, ACK1 inhibition in LAPC4 cells with cell growth as read out: did not display the expected cellular potency

## C[C@]12CCC(=O)C[C@@H]1CC[C@@H]1[C@@H]2CC[C@]2(C)[C@@H](O)CC[C@@H]12 [DHT]
[1]
  AR mRNA levels: no significant change
[6]
  AR protein levels: increased AR levels
[7]
  endogenous pY88-phosphorylation of H4 in LNCaP cells: unaffected

## CN1CCN(c2ccc(Nc3ncc(Cl)c(NC[C@@H]4CCCO4)n3)cc2)CC1 [DZ1-077, (S)-5-chloro-N2-(4-(4-methylpiperazin-1-yl)phenyl)-N4-((tetrahydrofuran-2-yl)methyl)pyrimidine-2,4-diamine]
[5]; [14]
  IC50: 8.05e-08 M and 8.33e-08 M
[5]; [15]
  IC50: 8.33e-08 M
[3]; [16]
  % Inhibition at 10 μM (ELISA): 94%
[3]; [17]
  inhibition at 10 µM: 93%
[8]
  IC50: 2.96e-07 M
[9]
  IC50: 1.8 µM
[10]
  IC50: 4 µM

## Oc1ccc(Nc2ncc(Cl)c(NCC3CCCO3)n2)cc1 (stereo not shown) [DZ1-120, 4-(5-chloro-4-((tetrahydrofuran-2-yl)methylamino)pyrimidin-2-ylamino)phenol]
[5]; [14]
  IC50: 1.63e-07 M
[5]; [18]
  IC50: 1.63e-07 M
[3]; [16]
  % Inhibition at 10 μM (ELISA): 58%
[3]; [17]
  inhibition at 10 µM: 73%

## CN1CCN(c2ccc(Nc3ncc(Br)c(NCC4CCCO4)n3)cc2)CC1 (stereo not shown) [DZ1-122, 5-bromo-N2-(4-(4-methylpiperazin-1-yl)phenyl)-N4-((tetrahydrofuran-2-yl)methyl)pyrimidine-2,4-diamine]
[5]; [14]
  IC50: 4.8e-08 M
[3]; [16]
  % Inhibition at 10 μM (ELISA): 91%
[3]; [17]
  inhibition at 10 µM: 95%

## CNC(=O)c1ccc(N2C(=S)N(c3ccc(C#N)c(C(F)(F)F)c3)C(=O)C2(C)C)cc1F [Enzalutamide]
[1]
  AR mRNA levels: no significant change
[7]
  endogenous pY88-phosphorylation of H4 in LNCaP cells: unaffected
[11]
  CRPC patients in whom effective: 12 out of 30
  overall survival advantage: 4-6 months
[2]
  PSA mRNA levels: significantly suppressed PSA mRNA levels

## CN1CCN(c2ccc(Nc3ncc(Cl)c(NCC4CCCO4)n3)cc2)CC1 (stereo not shown) [MH1-022-5, 5-chloro-N2-(4-(4-methylpiperazin-1-yl)phenyl)-N4-((tetrahydrofuran-2-yl)methyl)pyrimidine-2,4-diamine]
[5]; [15]
  IC50: 5.44e-08 M
[3]; [16]
  % Inhibition at 10 μM (ELISA): 91%
[3]; [17]
  inhibition at 10 µM: 90%

## CCCS(=O)(=O)Nc1ccc(F)c(C(=O)c2c[nH]c3ncc(-c4ccc(Cl)cc4)cc23)c1F [PLX4032]
[1]
  AR mRNA levels: no significant change
[6]
  AR protein levels: little effect on AR expression

## Cl.Oc1ccc(Nc2ncc(Br)c(NCC3CCCO3)n2)cc1 (stereo not shown) [SK1-028, 4-(5-Bromo-4-((tetrahydrofuran-2-yl)methylamino)pyrimidin-2-ylamino)phenol hydrochloride]
[5]; [18]
  IC50: 1.64e-07 M
[3]; [19]
  % Inhibition at 10 μM (ELISA): 59% and 81% and 85% and 65% and 67%

## Cc1cc(Nc2ncc(Br)c(NCC3CCCO3)n2)ccc1O.Cl (stereo not shown) [SK1-040, 4-(5-bromo-4-((tetrahydrofuran-2-yl)methylamino)pyrimidin-2-ylamino)-2-methylphenol]
[5]; [20]
  IC50: 9.95e-08 M
[3]; [16]
  % Inhibition at 10 μM (ELISA): 90% and 61% and 56% and 57%

## Cl.Oc1ccc(Nc2ncc(Br)c(NCC3CCCO3)n2)cc1F (stereo not shown) [SK1-044, 4-(5-bromo-4-((tetrahydrofuran-2-yl)methylamino)pyrimidin-2-ylamino)-2-fluorophenol]
[5]; [20]
  IC50: 2.99e-07 M
[3]; [16]
  % Inhibition at 10 μM (ELISA): 89% and 63% and 28% and 38%

## COc1cc(N2CCC(N3CCN(C)CC3)CC2)ccc1Nc1ncc(Cl)c(Nc2ccccc2S(=O)(=O)C(C)C)n1 [TAE684]
[12]
  ACK1 activation (autophosphorylation) in EGF-treated LAPC4 cells: significant reduction in ACK1 activation

## O=C(Nc1c(F)cccc1Cl)c1cnc(Nc2ccc(O)cc2)nc1NCC1CCCO1 (stereo not shown) [YL7-104-2, N-(2-chloro-6-fluorophenyl)-2-(4-hydroxyphenylamino)-4-((tetrahydrofuran-2-yl)methylamino)pyrimidine-5-carboxamide]
[5]; [20]
  IC50: 5.44e-08 M
[3]; [16]
  % Inhibition at 10 μM (ELISA): 76%
[3]; [17]
  inhibition at 10 µM: 85%

## CCOC(=O)C1CCN(c2ccc(Nc3ncc(Cl)c(NCC4CCCO4)n3)cc2)CC1.Cl (stereo not shown) [YL8-047, Ethyl 1-(4-(5-chloro-4-((tetrahydrofuran-2-yl)methylamino)pyrimidin-2-ylamino)phenyl)piperidine-4-carboxylate hydrochloride]
[5]; [20]
  IC50: 1.08e-07 M
[3]; [19]
  % Inhibition at 10 μM (ELISA): 67% and 69%
[3]; [17]
  inhibition at 10 µM: 65%

## O=C(Nc1c(F)cccc1Cl)c1cnc(Nc2ccc(N3CCNCC3)cc2)nc1NCC1CCCO1 (stereo not shown) [YL9-162, N-(2-chloro-6-fluorophenyl)-2-(4-(piperazin-1-yl)phenylamino)-4-((tetrahydrofuran-2-yl)methylamino)pyrimidine-5-carboxamide TFA salt]
[5]; [14]
  IC50: 3.32e-08 M
[3]; 10 μM, Table 1, replicate values listed, TFA salt
  % Inhibition at 10 μM (ELISA): 88%
[3]; read-out: % Inhibition at 10 μM (ELISA), 10 μM, Table 1, replicate values listed
  inhibition at 10 µM: 91%

## O=C(O)CCC(=O)N1CCN(c2ccc(Nc3ncc(C(=O)Nc4c(F)cccc4Cl)c(NCC4CCCO4)n3)cc2)CC1 (stereo not shown) [YL9-163, 4-(4-(4-(5-(2-Chloro-6-fluorophenylcarbamoyl)-4-((tetrahydrofuran-2-yl)methylamino)pyrimidin-2-ylamino)phenyl)piperazin-1-yl)-4-oxobutanoic acid]
[5]; [18]
  IC50: 2.84e-08 M
[3]; [16]
  % Inhibition at 10 μM (ELISA): 93%
[3]; [17]
  inhibition at 10 µM: 85%
